Tests used:
[1] = test system: Human umbilical vein endothelial cells (HUVECs); assay: Inhibitory activity against the growth of vascular endothelial cells stimulated with hepatocyte growth factor; type: cell-based; details: HUVEC, HGF stimulation, third day, Cell Counting Kit-8, read-out: IC50 (concentration necessary to inhibit cell proliferation activity by 50%)
Protocol: (§1) Human umbilical vein endothelial cells (HUVECs) were isolated according to the reported method (Shin Seikagaku Jikken Koza, “Cell culturing techniques”, p 197-202), and then cultured in a 5% CO2 incubator (37° C.) using EGM-2 medium (purchased from Clonetics) until the cells reached confluency.
HUVECs were suspended in a serum-free medium for endothelial cell culture (SFM, purchased from GIBCO RBL) containing 2% FBS. The cell suspension (2×10^4 cells/ml) was put in a cell culturing 96-well plate (purchased from NUNC, Production No. 167008) at 0.1 ml/well, and then cultured in a 5% CO2 incubator (37° C.) overnight. […] After the incubation, using a Plate Reader MTP-500 (Corona Electric), the absorbance of each well was determined at a measurement wavelength of 450 nm and a reference wavelength of 660 nm. While defining the absorbance of a well supplied with HGF and no test substance as 100% cell proliferation activity and the absorbance of the well supplied with no test substance and no HGF as 0% cell proliferation activity, the cell proliferation activity ratio (%) was calculated for each cell. […]

[2] = test system: Human gastric cancer cells (MKN-45) tumor; assay: Inhibitory activity against the tumor growth of human gastric cancer cells (MKN-45) transplanted in mice; type: in vivo, BALB/c (nu/nu) mice; details: oral, twice every day, fifth day, tumor volume relative to control group
Protocol: Human gastric cancer cells (MNK-45) were suspended in HBSS (purchased from GIBCO BRL). The cell suspension (5×10^7 cells/ml) was transplanted under the right flank skin of seven-week-old female BALB/c (nu/nu) mice at a volume of 0.1 ml. When tumor volume of the site transplanted with MNK-45 cells grew to 100-200 mm^3, mice were grouped so that the groups might be equalized in average tumor volume. The test substance was suspended in 0.5% methylcellulose, a mixed solution of hydrochloric acid and glucose (0.1N hydrochloric acid:5% glucose=1:9) or a mixed solution of dimethyl sulfoxide-Tween-glucose (dimethyl sulfoxide:Tween 80:5% glucose (containing equimolar hydrochloric acid to the test substance)=7:13:80), were administered orally to the mice twice every day. The tumor volumes were determined at the fifth day after the initiation of the administration of the test substances. The major axis and the minor axis of tumor were measured by a caliper to calculate 1/2×(major axis×minor axis×minor axis) for the tumor volume. The experiment was conducted using 10 mice in the control group (solvent-administered group) and 5 mice in test substance-administered group. The ratio in tumor volume of the group for administrating the test substance relative to that of the control group was defined as a tumor proliferation rate (%).

[3] = test system: Human umbilical vein endothelial cells (HUVECs); assay: Inhibitory activity against sandwich tube formation by vascular endothelial cells stimulated with hepatocyte growth factor; type: cell-based; details: HUVEC in collagen gel, 30 ng/ml HGF, fourth day, total tube length, read-out: IC50 (concentration necessary to inhibit the tube formation by 50%)
Protocol: as §1
To each well of a 24-well plate was added 0.4 ml of an ice-cold mixture of collagen:5×RPMI1640:reconstitution buffer (all purchased from Nitta Gelatin, Inc.) at 7:2:1, followed by incubating in a 5% CO2 incubator (37° C.) for 40 min to allow the solution to gel. Then, each well was supplied with 1 ml of the cell suspension of HUVEC (1-1.2×10^5 cells were used, though the cell number varied slightly depending on the lot of the HUVEC to be used) diluted with a serum free medium for endothelial cell culture (SFM, purchased from GIBCO RBL) supplemented with 10 ng/ml of EGF, followed by culturing in a 5% CO2 incubator (37° C.) overnight. […] The tube formed in the collagen gel of each well was stained with MTT, and then the tube image was loaded in a computer (Macintosh) to determine the total length of the tube by an image analysis software “Angiogenesis quantification software” (purchased from Kurabo). The ratio of the total length of a tube formed in a well supplied with the test substance relative to a tube formed in a well supplied with no test substance was expressed as a percentage. […]

Compound | IC50 [1] | Tumor proliferation rate (%) ([2]; Dose 30 mg/kg/time) | Tumor proliferation rate (%) ([2]; Dose 100 mg/kg/time) | Tumor proliferation rate (%) ([2]; Dose 10 mg/kg/time) | IC50 [3]
O=C(Cc1ccc(F)cc1)NC(=S)Nc1ccc(Oc2cc(NC(=O)N3CCCC3)ncn2)c(F)c1 [Example 3, Pyrrolidine-1-carboxylic acid [6-(2-fluoro-4-{3-[2-(4-fluorophenyl)acetyl]thioureido}phenoxy)pyrimidin-4-yl]amide] | 190 nM | 69% | 37% | – | –
O=C(Cc1ccc(F)cc1)NC(=S)Nc1ccc(Oc2ccnc(NC(=O)N3CCCC3)c2)c(F)c1 [Example 13, 4-(2-Fluoro-4-{3-[2-(4-fluorophenyl)acetyl]thioureido}phenoxy)-2-[(pyrrolidin-1-yl)carbonylamino]pyridine] | 73 nM | 47% | 26% | 68% | 130 nM

Source: US20070270421A1, “Novel pyridine Derivative and Pyrimidine Derivative (1)” (priority 2004, published 2007)
